{"source": "patent US20130273057A1", "about": "“METHODS AND COMPOSITIONS FOR THE TREATMENT AND DIAGNOSIS OF VASCULAR INFLAMMATORY DISORDERS OR ENDOTHELIAL CELL DISORDERS” (Beth Israel Deaconess Medical Center, Inc., priority 2007, published 2013)", "key": {"[1]": {"test_system": "PAR-1 induced vascular leak in mice", "test": "PAR-1 induced vascular leak in mouse ears (Evan blue)", "format": "in vivo", "settings": "ear pretreated with 10 μl of 10 μM SU5416 for one hour; PAR-1 activating peptide and Evan blue by tail vein; about 15 minutes", "method": "Then 20 μl of 5 mM PAR-1 activating peptide and 500 μl 0.1% Evan blue was injected into the mouse by tail vein injection. About 15 minutes later the extent of vascular leaks in the ears was documented by photography."}, "[2]": {"test_system": "HUVEC monolayer", "test": "Immunostaining of VE-cadherin and actin stress fiber, endothelial gap formation", "format": "cell-based, human", "settings": "10 μM SU5416 2 hours", "method": "VE-cadherin, actin stress fiber, and nuclei were stained with anti VE-cadherin antibody (green), phalloidin (red), and DAPI (blue), respectively.\nEGM2-MV medium (600 μl) was added to the lower chamber. An endothelial monolayer was allowed to establish overnight. […] Each slide chamber was seeded with 200,000 HUVECs in one ml of EGM2-MV medium. An endothelial monolayer was allowed to established overnight. […] After 15 mins of stimulation, cells were fixed with 4% paraformaldehyde in PBS for 15 mins and permeabilized with 0.5% Triton X-100 in PBS for 5 mins. […] After 3 washes with 0.5% FBS/PBS, the samples were mounted in a drop of ProLong Gold antifade reagent with DAPI (Probes, P36931). Images were recorded using a fluorescence microscope (Nikon Corporation, Tokyo, Japan) and coupled to a Spot RT camera (Diagnostic Instruments Inc, Sterling Heights, Mich.). Western blotting: To examine the phosphorylation status of VE-Cadherin and myosin light chain"}, "[3]": {"target": "VEGFR-2 (Homo sapiens, UniProt P35968)", "sequence (P35968 20-1356, species assumed)": "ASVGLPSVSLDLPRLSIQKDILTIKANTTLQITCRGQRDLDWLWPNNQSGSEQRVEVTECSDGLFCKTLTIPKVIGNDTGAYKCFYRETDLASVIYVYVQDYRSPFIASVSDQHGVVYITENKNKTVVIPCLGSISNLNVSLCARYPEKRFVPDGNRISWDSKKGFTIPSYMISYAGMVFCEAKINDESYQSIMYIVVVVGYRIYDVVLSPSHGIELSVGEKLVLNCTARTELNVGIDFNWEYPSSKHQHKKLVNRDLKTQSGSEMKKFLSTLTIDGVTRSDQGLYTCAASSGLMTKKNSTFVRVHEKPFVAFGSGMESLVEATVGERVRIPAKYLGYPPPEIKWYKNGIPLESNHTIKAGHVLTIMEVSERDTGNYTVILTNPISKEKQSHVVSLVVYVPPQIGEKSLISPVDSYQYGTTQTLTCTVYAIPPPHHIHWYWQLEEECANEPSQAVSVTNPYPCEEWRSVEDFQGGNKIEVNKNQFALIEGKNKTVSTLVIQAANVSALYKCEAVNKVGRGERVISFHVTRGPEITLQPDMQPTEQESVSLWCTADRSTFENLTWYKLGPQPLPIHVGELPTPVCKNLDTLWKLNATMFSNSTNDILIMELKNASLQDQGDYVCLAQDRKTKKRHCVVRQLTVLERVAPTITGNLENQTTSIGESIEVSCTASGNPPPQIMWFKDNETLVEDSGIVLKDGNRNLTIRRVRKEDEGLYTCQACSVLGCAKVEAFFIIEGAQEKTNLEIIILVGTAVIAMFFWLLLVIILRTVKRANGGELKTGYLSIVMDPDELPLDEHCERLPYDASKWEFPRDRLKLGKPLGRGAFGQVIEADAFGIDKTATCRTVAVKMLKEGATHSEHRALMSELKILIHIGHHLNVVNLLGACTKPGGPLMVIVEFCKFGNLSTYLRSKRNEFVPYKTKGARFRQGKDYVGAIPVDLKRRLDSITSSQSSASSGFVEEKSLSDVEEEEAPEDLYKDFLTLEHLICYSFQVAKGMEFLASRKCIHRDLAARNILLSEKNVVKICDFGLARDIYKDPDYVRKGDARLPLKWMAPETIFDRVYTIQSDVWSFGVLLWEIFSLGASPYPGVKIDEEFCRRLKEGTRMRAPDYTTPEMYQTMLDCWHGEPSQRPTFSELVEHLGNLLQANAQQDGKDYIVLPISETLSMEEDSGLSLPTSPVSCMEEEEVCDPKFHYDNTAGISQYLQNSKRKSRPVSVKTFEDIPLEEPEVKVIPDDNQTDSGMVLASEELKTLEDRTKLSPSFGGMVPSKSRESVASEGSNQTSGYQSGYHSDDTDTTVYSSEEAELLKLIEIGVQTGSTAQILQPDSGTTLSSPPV", "settings": "cited from earlier work"}, "[4]": {"test_system": "FGF R", "settings": "cited from earlier work"}, "[5]": {"test_system": "HUVEC monolayer", "test": "Permeability assay, FITC-BSA across HUVEC monolayer in Transwell", "format": "cell-based, human", "settings": "10 μM SU5416 1 hour, 5 U/ml thrombin 10 mins", "method": "FIG. 12 is a graph showing the thrombin induced-endothelial barrier dysfunction requires VEGFR activity. Confluent HUVEC monolayers were established in Transwell inserts. […] After 10 minutes of stimulation, fluorescein-labeled BSA that had diffused to the lower chamber was detected by fluorescence measurement and used as a surrogate marker of endothelial permeability. T: thrombin; SU: SU5416.\nPermeability assay: 50,000 HUVECs were seeded in a Transwell insert (Corning 3496) in 100 μl of full EGM2-MV medium. EGM2-MV medium (600 μl) was added to the lower chamber. An endothelial monolayer was allowed to establish overnight. […] The inserts were then immediately transferred to a new well containing 500 μl PBS (with Mg^2+/Ca^2+; GIBCO 14040-141). After 10 mins of incubation, the Transwells were removed, and fluorescence of the PBS in the lower chamber was measured using a CytoFluor Multiwell Plate Reader (Series 4000) with the following settings: excitation λ 485/20 […], emission λ 530/25. Immunostaining: LabTek slide chambers (177429) were precoated with 50 μg/ml rat tail collagen type-1 (BD Biosciences, 354236) at 37° C. for 1 hour according to the manufacturer's protocol. […] Images were recorded using a fluorescence microscope (Nikon Corporation, Tokyo, Japan) and coupled to a Spot RT camera (Diagnostic Instruments Inc, Sterling Heights, Mich.). […]"}, "[6]": {"test_system": "several xenograph models", "settings": "intra-peritoneal injection twice weekly, 50 mg/kg; cited from earlier work"}, "[7]": {"test_system": "myosin light chain (MLC)", "test": "Western blot of MLC phosphorylation upon thrombin stimulation", "format": "cell-based, human", "settings": "10 μM SU5416 pretreatment; thrombin 5 minutes; serine 19", "method": "(§1) FIGS. 14A-14C show transactivation of VEGFR is critical for tyrosine phosphorylation of VE-cadherin and p120 but not involved in MLC signaling. […] To preserve tyrosine phosphorylation, cells were then treated with 2 mM Na3VO4/2 mM H2O2 for 5 mins prior to lysis (Lampugnani, Corada et al., J. Cell Sci. 110 (Pt 17): 2065-2077, (1997)). A portion of the clarified total lysates was analyzed by western blot using an anti-phospho MLC antibody. The membrane was stripped and reblotted with anti GAPDH antibody. In FIG. 14B VE-cadherin was immunoprecipitated from lysates prepared in FIG. 14A. Tyrosine phosphorylation was detected by 4G10 antibody (FIG. 14B, i). The membrane was stripped and reblotted with an anti VE-cadherin antibody (FIG. 14B, ii). […] 4G10 immunoprecipitates were fractioned by SDS-PAGE, and p120 was detected by western blot. (−): No thrombin; (T): 5 U/ml thrombin. Molecular weights are in kDa.\n(§2) (MLC) upon thrombin stimulation, a procedure derived from a published protocol was used (Ukropec et al., J. Biol. Chem. 275: 5983-5986, (2000)). […] Cells were then washed with PBS containing Mg^2+/Ca^2+ (GIBCO 14040-141) supplemented with 1 mM Na3VO4 and 0.2 mM H2O2 at room temperature for 5 mins. […] After SDS-PAGE, phosphorylation of VE-cadherin was detected by western blotting with the antibody 4G10. […]"}, "[8]": {"test_system": "MER", "test": "Thrombin-induced receptor tyrosine kinase phosphorylation in HUVECs (4G10 immunoprecipitation/western blot)", "format": "cell-based, human", "settings": "confluent HUVECs pretreated with 10 μM SU5416 for 2 hrs; 5 U/ml thrombin", "source_text": "(§3) (−): No thrombin; (T): 5 U/ml thrombin. Molecular weights are in kDa."}, "[9]": {"test_system": "Tie-2", "test": "Thrombin-induced receptor tyrosine kinase phosphorylation in HUVECs (4G10 immunoprecipitation/western blot)", "format": "cell-based, human", "settings": "confluent HUVECs pretreated with 10 μM SU5416 for 2 hrs; 5 U/ml thrombin", "source_text": "as §3"}, "[10]": {"test_system": "Tie-1 endodomain", "test": "Thrombin-induced receptor tyrosine kinase phosphorylation in HUVECs (4G10 immunoprecipitation/western blot)", "format": "cell-based, human", "settings": "confluent HUVECs pretreated with 10 μM SU5416 for 2 hrs; 5 U/ml thrombin", "source_text": "as §3"}, "[11]": {"test_system": "VEGFR2", "test": "Thrombin-induced receptor tyrosine kinase phosphorylation in HUVECs (4G10 immunoprecipitation/western blot)", "format": "cell-based, human", "settings": "confluent HUVECs pretreated with 10 μM SU5416 for 2 hrs; 5 U/ml thrombin", "source_text": "as §3"}, "[12]": {"test_system": "p120", "test": "p120 tyrosine phosphorylation (4G10 immunoprecipitation/western blot)", "format": "cell-based, human", "settings": "10 μM SU5416 2 hrs", "method": "as §1, §2"}, "[13]": {"test_system": "VE-cadherin", "test": "VE-cadherin tyrosine phosphorylation (immunoprecipitation/4G10 western blot)", "format": "cell-based, human", "settings": "10 μM SU5416 pretreatment", "method": "as §1, §2"}, "[14]": {"test_system": "PDGF receptor", "settings": "relative to VEGFR-2; cited from earlier work"}, "[15]": {"settings": "thrombin or PAR-1 AP 30 μM, 15 mins"}}, "data": [{"smiles": "Cc1cc(C)c(/C=C2\\C(=O)Nc3ccccc32)[nH]1", "note": "[SU5416]", "values": [{"measurement": "PAR-1 induced vascular leak in mice", "setting": "[1]", "result": "inhibited"}, {"measurement": "stress fiber formation induced by thrombin", "setting": "[2]; thrombin 15 mins", "result": "did not block"}, {"measurement": "VE-cadherin disruption induced by thrombin or PAR-1 AP", "setting": "[2]; [15]", "result": "completely blocked"}, {"measurement": "intercellular gap formation induced by thrombin or PAR-1 AP", "setting": "[2]; [15]", "result": "no intercellular gaps formed"}, {"measurement": "blocking VEGFR-2 function in cells", "setting": "[3]", "result": "most effective"}, {"measurement": "inhibition of FGF R", "setting": "[4]", "result": "poor inhibitor"}, {"measurement": "thrombin-induced increase in endothelial permeability", "setting": "[5]", "result": "completely blocked"}, {"measurement": "tumor progression in xenograph models", "setting": "[6]", "result": "effectively blocks"}, {"measurement": "serine phosphorylation of MLC induced by thrombin", "setting": "[7]", "result": "did not affect"}, {"measurement": "activation of MER by thrombin stimulation", "setting": "[8]", "result": "completely blocked"}, {"measurement": "thrombin-induced phosphorylation of Tie-2", "setting": "[9]", "result": "partially blocked"}, {"measurement": "thrombin-induced phosphorylation of Tie-1 endodomain", "setting": "[10]", "result": "partially blocked"}, {"measurement": "phosphorylation of VEGFR2 induced by thrombin", "setting": "[11]", "result": "significantly attenuated"}, {"measurement": "thrombin-induced tyrosine phosphorylation of p120", "setting": "[12]", "result": "significantly blocked"}, {"measurement": "thrombin-induced tyrosine phosphorylation of VE-cadherin", "setting": "[13]", "result": "significantly blocked"}, {"measurement": "inhibition of PDGF receptor in cell based assays, times less effective", "setting": "[14]", "result": 20, "unit": "times"}]}]}
